Experimental data published in ChEMBL document CHEMBL1151638, “Hippamine, a Minor Alkaloid From Sternbergia lutea” (1984).

System: Solanum tuberosum
Experiment: Inhibition of ascorbic acid biosynthesis in potato tuber at 20 uM
Type: functional

SMILES	inhibition at 20 µM [%]
CO[C@H]1C=C2CCN3Cc4cc5c(cc4[C@H]([C@@H]1O)[C@@H]23)OCO5 [HIPPPAMINE]	58
O[C@H]1[C@H]2c3cc4c(cc3CN3CCC(=C[C@@H]1O)[C@H]23)OCO4 [LYCORINE]	80
